Experimental data reported in patent US20090076067A1, “PHARMACEUTICAL COMPOSITION COMPRISING AZARHODACYANINE COMPOUND AS ACTIVE INGREDIENT” (priority 2005, published 2009).
Read-outs that look alike come from different tables or passages of the source.

Legend:
[1] = test system: Trypanosoma brucei rhodensiense (STIB 900 strain); experiment: African trypanosoma protozoa proliferation inhibition screening test; format: cell-based; settings: for Selective toxicity: EC50 rat L6 cells / EC50 African trypanosoma protozoa; for EC50: Trypanosoma brucei, STIB900, read-out: EC50 Trypanosoma brucei rhod.; for EC50 / EC50 Trypanosoma brucei rhod.: STIB 900 bloodstream form, 72 hours, Alamar blue
Procedure: In this experiment, bloodstream form trypomastigote of Trypanosoma brucei rhodensiense (STIB 900 strain) was used. The medium used in the experiment was prepared as follows: to filter-sterilized MEM medium, 25 mM N-2-hydroxyethylpiperazine-2-ethane sulfonate (HEPES), 1 g/L glucose, 1% MEM nonessential amino acid, 0.2 mM 2-mercaptoethanol, 2 mM pyruvic calcium salt, 0.1 mM hypoxanthine, and 15% heat-treated horse serum were added. The protozoa was cultured under atmosphere of CO2 concentration 5% and temperature 37° C.
Either the compound of the invention or a positive control (melarsoprol) was dissolved into dimethylsulfoxide (DMSO) to prepare test solution having predefined concentration. To each well in a 96-well culture plate, medium containing 8×10^3 protozoa, and either test solution containing the test compound at predefined concentration or DMSO without compound was added. Then medium was added to achieve 100 μL. The test solution was duplicated.
The culture plate was cultured in an incubator for 72 hours, and the proliferation inhibition activity was examined. The activity was determined as follows. To each well, 10 μL Alamar blue water solution was added, then the plate was again cultured for 2 hours. Then the culture plate was mounted on a fluorescence microplate reader (Spectramax Gemeni XS; Molecular Devices Corporation, U.S.), and irradiated with 536 nm excitation wavelength to determine fluorescence at 588 nm. The trypanosoma infection rate of the sample containing the test composition and that of the control sample was calculated.
Using the protozoa infection rate thus obtained, the proliferation inhibition rate was calculated according to the following equation to determine 50% proliferation inhibition concentration (EC50).
(§1) Proliferation inhibition rate(%)={1−(b−a)/(c−a)}×100
a: initial infection rate b: infection rate of the test compound solution c: infection rate of the control

[2] = test system: Plasmodium berghei NK 65 strain; experiment: animal or person; format: in vivo; settings: for Survival days (mean survival days, treatment group minus control group) / Recovery Rate (suppression): 4 days; for Recovery Rate (suppression): P. berghei infected ICR mice
[3] = test system: Plasmodium Falciparum k1 strain; experiment: Chloroquine-resistant tropical malaria protozoa proliferation inhibition screening test; format: cell-based; settings: for Selective toxicity: EC50 rat L6 cells / EC50 Chloroquine-resistant malaria protozoa; for EC50: Plasmodium falciparum
Procedure: In this experiment, Plasmodium Falciparum k1 strain protozoa were used. The medium used in the experiment was filter-sterilized RPMI-1640 medium. To the medium human serum was added to achieve 5% concentration. The protozoa was cultured under condition of O2 concentration 3%, CO2 concentration 4%, N2 concentration 93%, and temperature 37° C.
The cultured malaria infected red blood cells were collected by centrifugation, diluted with non-infected red blood cells, to achieve initial infection rate 0.15%. The hematocrit was 2.5%.
To each well in a 96-well culture plate, 200 μL malaria infected culture was added, and either test solution containing test compound at predefined concentration or DMSO having no test compound was added. Each test solution was prepared in duplicate. After 48 hours culture under 37° C., hypoxanthine labeled with radioactive tritium (^3H) of 0.5 μCi was added to each well. After culturing under same condition for 24 hours, the product was collected on a glass fiber filter and washed. The intensity of radiation was measured by Beta plate liquid scintillation counter (Wallac Inc.), to determine malaria protozoa infection rate in test compound samples and control samples.
Using the malaria protozoa infection rate, the proliferation inhibition rate was calculated according to the following equation to determine 50% proliferation inhibition concentration (EC50).
as §1
a: initial infection rate b: infection rate of test compound solution c: infection rate of the control

[4] = Plasmodium berghei, ip, 96 h, read-out: Recovery Rate (suppression)
[5] = dose 25 mg/kg/d intraperitoneally
[6] = chloroquine-resistant K1 strain, 3H-hypoxanthine uptake, read-out: EC50 P. falciparum K1
[7] = chloroquine-resistant K1 strain, 3H-hypoxanthine uptake

SMILES | Selective toxicity [1] | EC50 [1] [µg/mL] | inhibition in vivo at 10 mg/kg/day [2, 4] [%] | inhibition in vivo at 25 mg/kg/day [2, 4] [%] | Survival days (mean survival days, treatment group minus control group) [2, 5] [days] | Selective toxicity [3] | EC50 [3, 6] [µg/mL] | EC50 Trypanosoma brucei rhod. [1] [µg/mL] | Recovery Rate (suppression) [2, 5] [%] | EC50 P. falciparum K1 [3, 7] [µg/mL] | also measured
CCN1C(=O)/C(=C2\Sc3ccccc3N2C)S/C1=N\c1sc2cc(Cl)ccc2[n+]1C [Compound A-1] | 94 | 0.403 | 54.1 | 62.7 | 2.0 | 255 | 0.148 | – | – | – | –
CCN1C(=O)/C(=C2\C=Cc3ccccc3N2C)S/C1=N\c1sc2cc(Cl)ccc2[n+]1C [Compound A-2] | 72 | 0.076 | 54.6 | – | – | 2500 | 0.0022 | – | – | – | –
CCN1C(=O)/C(=c2/s/c(=C3/C=CC=CN3C)c(=O)n2CC)S/C1=N\c1sc2cc(Cl)ccc2[n+]1C [Compound B-2] | 258 | 0.104 | 79.8 | 97.1 | 19.3 | 4495 | 0.006 | – | – | – | inhibition in vivo at 20 mg/kg/day [2, 4]: 97.4%; inhibition in vivo at 40 mg/kg/day [2, 4]: 99.1%
CCN1C(=O)/C(=c2/s/c(=C3/SCCN3C)c(=O)n2CC)S/C1=N\c1sc2cc(Cl)ccc2[n+]1C [Compound B-12] | 50 | 0.138 | – | 88.4 | – | 507 | 0.0136 | – | – | – | –
CCN1C(=O)/C(=c2/s/c(=C3/C=CC=CN3C)c(=O)n2CC)S/C1=N\c1sc2cc(OC)ccc2[n+]1C [Compound B-28] | – | – | – | – | – | – | – | 0.042 | 98.3 | 0.007 | –
CCN1C(=O)/C(=c2/s/c(=C3/SCCN3C)c(=O)n2CC)S/C1=N\c1sc2cc(OC)ccc2[n+]1C [Compound B-29] | – | – | – | – | – | – | – | 0.023 | 95.0 | 0.006 | –
CCN1C(=O)/C(=c2/s/c(=C3/C=CC=CN3C)c(=O)n2CC)S/C1=N\c1sc2ccccc2[n+]1C [Compound B-30] | – | – | – | – | 16.0 | – | – | 0.0625 | 96.4 | 0.0119 | Recovery Rate (suppression) ([2]; dose 10 mg/kg/d intraperitoneally): 70.8%; Recovery Rate (suppression) ([2]; dose 20 mg/kg/d intraperitoneally): 92.4%; Recovery Rate (suppression) ([2]; dose 40 mg/kg/d intraperitoneally): 97.8%
CCN1C(=O)/C(=c2/s/c(=C3/SCCN3C)c(=O)n2CC)S/C1=N\c1sc2cc(F)ccc2[n+]1C [Compound B-33] | – | – | – | – | 8.7 | – | – | 0.1485 | 70.5 | 0.0167 | –
CCn1c(=O)/c(=C2\SCCN2C)s/c1=C1\S/C(=N\c2sc3cc(Cl)ccc3[n+]2C)N(C(C)C)C1=O [Compound B-37] | 19 | 0.052 | – | 94.5 | – | 160 | 0.009 | – | – | – | –
CN1/C(=c2\s/c(=C\c3cccc[n+]3CCC(=O)O)n(CC3CO3)c2=O)Sc2ccccc21 (stereo not drawn) [Compound S-3, reference compound] | >15 | 6.1 | – | – | – | >320 | – | – | – | – | inhibition in vivo at 5 mg/kg/day [2, 4]: 29.8%; Survival days (mean survival days, treatment group minus control group) ([2]; dose 5.0 mg/kg/d intraperitoneally): 0 days; EC50 ([3]; K1, read-out: EC50 P. falciparum K1): 0.28 µg/mL
